We go through three compounds from patent publication US20080248008A1, “Inhibitors of Protein Kinase a Anchoring” (priority 2004, published 2008).

Series [1] in a line: Circular dichroism, α helical content. It is filed as physicochemical. The procedure: Circular Dichroism. CD spectra were recorded by using a Jasco J-810 spectropolarimeter (Jasco). Measurements were performed at 25° C. by using a quartz cuvette (Starna) with a path length of 0.1 cm. All the measurements were performed with a peptide concentration of 0.10 mg/ml in PBS containing 0-75% trifluoroethanol (TFE). Samples were scanned five times at 20 nm/min with a bandwidth of 1 nm and a response time of 1 s, over the wavelength range 190 to 260 nm. The data were averaged, and the spectrum of a peptide-free control sample was subtracted. The α helical content was calculated after smoothing (means-movement method; convolution width, 13) from ellipticity data, using the neural network program CDNN version 2.1. All measurements were conducted three times.
Background: CD spectra are sensitive to the conformation of chiral molecules.

The target in a further series is T1, RI (Homo sapiens, UniProt P10644).
T1 construct: endogenous in cells; host or cells: HEK293 (transfected only with GFP-peptide constructs)
The experiment in a line: Co-immunoprecipitation with RI in transfected HEK293 cells. Type of series: cell-based. Conditions: HEK293 cells transfected with GFP-fusion constructs. The procedure: HEK293 cells at […] were transfected with ten μg of plasmid DNA (GFP, GFP-MEME3 or GFP-Scrambled MEME3) by using the CaCl2 method. Cells were lysed after 30 hours in lysis buffer (20 mM Hepes, pH 7.5/150 mM NaCl/1 mM EDTA/1% Triton X-100) with protease inhibitors (Complete Mini, EDTA-free tablets, Roche).
Immunoblot analysis. Immunocomplexes and lipid raft fractions were analysed on a 10, 15% or 4-20% PAGE and blotted onto PVDF membranes. The filters were blocked in 5% non-fat dry milk in TBST for 30 minutes at RT, incubated 1 hour at RT (or overnight at 4° C.) with primary antibodies, washed four times 5 minutes in TBST with 0.1% Tween-20 and incubated with a horseradish-peroxidase-conjugated secondary antibody. Blots were developed by using Supersignal West Dura Extended Duration Substrate or Supersignal West Pico substrate (Pierce).
Antibodies. RI or RII were immunoprecipitated with polyclonal antibodies against human RI or human RII at a 3 μg/ml dilution (Santa Cruz Biotechnology). MEME3 or scrambled peptide was immunoprecipitated with 1.5 μl of anti-GFP antiserum (Invitrogen). […]
Immunocomplexes were analysed on 10% PAGE (B and C) or 15% PAGE (D) and subjected to Western blotting using anti-GFP, anti-RI or anti-RII as indicated and blotted onto PVDF membranes. […]

The target of another series is T2, PKA type I (Mus musculus, UniProt Q9DBC7).
T2 construct: host or cells: mouse Y-1 adrenocortical cells (lysate)
The experiment in a line: Solid phase immobilization from Y-1 adrenal cell lysate, PKA type I. It is filed as binding. Conditions: overnight. Here is the method: (§1) Solid phase assay and cell lysate. 5×10^6 Y1 cells or 20×10^6 Jurkat T cells lysed in 150 mM NaCl, 1% NP-40, 0.5% deoxycholate, 0.1% SDS and 50 mM Tris HCl (7.8) were incubated overnight at 4° C. with MEME3 and SM3 peptides synthesized on membranes (Autospot, Intavis, AG). The membranes were washed two times for 10 minutes in lysis buffer and thereafter in high salt lysis buffer (1 M NaCl) before boiling in SDS-PAGE loading buffer.
A solid phase immobilization assay (schematic illustration in FIG. 24, left panel) was used to analyse endogenous PKA binding to MEME3. MEME3 and SM3 peptides synthesized in triplicate on membranes were incubated overnight in lysate from Y-1 adrenal cells. Thereafter bound proteins were eluted, subjected to 10% PAGE and analysed by immunoblotting using specific antibodies against PKA-RIα, PKA-C and PKA-RIIα subunits.

A further series has as its target PKA-RIIα (Homo sapiens, UniProt P13861). The experiment in a line: Solid phase pull down from T cell lysate, PKA-RIIα. Type of series: binding. More on the design: endogenous in cells; host or cells: Jurkat T cells (lysate). Conditions: overnight. The procedure:
as §1
Solid phase pull down (see schematic illustration in FIG. 24A, left panel) was performed to analyse endogenous PKA binding to MEME3. MEME3 and SM3 peptides synthesized in triplicate on membranes were incubated overnight in T cell lysate, thereafter bound proteins were eluted, subjected to 10% PAGE electrophoresis and analysed by immunoblotting (FIG. 11). The presence of PKA subunits was assessed by immunoblotting using specific antibodies against PKA-RIα and PKA-RIIα subunits.

The target of the next series is T3, Human RIα (Homo sapiens, UniProt P10644).
T3 construct: made in house; host or cells: E. coli BL21 (B121 [sic])
The experiment in a line: R-overlay with human RIα. Conditions: equal amounts of human or bovine RIα, n=3. Type of series: binding. Here is the method: R-overlay. R-overlays were conducted as described, using ^32P-labeled recombinant murine RII (Hausken, Z. E., et al., 1998 in Protein Targeting Protocols, ed. Clegg, R. A. (Humana, Totowa, N.J.), Vol. 88, pp. 47-64) or recombinant bovine RI (A98S) or by cold RI-overlay where bound RIα was detected by Western blot. Cold RI-overlay was performed by incubating the membranes with 250 nM RI overnight at 4° C., then the membranes were washed five times in TBST for 5 min. Detection of RI was performed using an anti-RI rabbit polyclonal antibody (Santa Cruz) at a concentration of 0.2 μg/μl for 1 hour at 4° C. Then the membranes were washed five times for 5 minutes in PBS followed by incubation with HRP-conjugated anti-rabbit IgGs (1:5000) for 1 hour at 4° C. The membranes were washed in PBS as described above before detection by Supersignal West Dura Extended Duration Substrate (Pierce).
The MEME3 sequence was synthesized on a membrane and RIα binding analysed by R-overlay using equal amounts of either human or bovine RIα (FIG. 3C).

PKA-RIIα, sequence (P13861 whole entry): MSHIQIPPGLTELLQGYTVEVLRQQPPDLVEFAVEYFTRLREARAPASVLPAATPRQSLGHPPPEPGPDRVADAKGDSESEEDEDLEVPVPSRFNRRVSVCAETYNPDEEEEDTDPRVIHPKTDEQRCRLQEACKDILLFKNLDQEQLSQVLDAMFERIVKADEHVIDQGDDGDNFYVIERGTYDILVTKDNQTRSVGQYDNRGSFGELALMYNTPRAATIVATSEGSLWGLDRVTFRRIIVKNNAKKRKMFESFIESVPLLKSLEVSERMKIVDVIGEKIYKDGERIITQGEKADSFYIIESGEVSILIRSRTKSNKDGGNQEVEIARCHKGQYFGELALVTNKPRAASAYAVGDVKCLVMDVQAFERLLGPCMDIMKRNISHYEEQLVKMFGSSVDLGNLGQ
T3 sequence (P10644 whole entry): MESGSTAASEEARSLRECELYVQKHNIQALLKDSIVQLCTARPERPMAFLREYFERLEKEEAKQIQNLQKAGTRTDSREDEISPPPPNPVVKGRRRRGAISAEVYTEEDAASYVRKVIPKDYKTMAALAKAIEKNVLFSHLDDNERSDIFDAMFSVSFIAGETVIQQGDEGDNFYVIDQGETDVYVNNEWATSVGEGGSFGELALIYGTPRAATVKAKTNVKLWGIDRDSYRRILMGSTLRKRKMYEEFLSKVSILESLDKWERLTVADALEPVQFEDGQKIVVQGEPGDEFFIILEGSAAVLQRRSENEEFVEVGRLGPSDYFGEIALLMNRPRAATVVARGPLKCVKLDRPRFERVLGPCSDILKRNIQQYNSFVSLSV

In series [1] (50% TFE), “LEQYANQLADQIIKEATERRRRRRRRRrr [MEME3-Arg11]” showed a helicity of 39%.

For `CC[C@H](C)[C@H](NC(=O)[C@H](CCC(N)=O)NC(=O)[C@H](CC(=O)O)NC(=O)[C@H](C)NC(=O)[C@H](CC(C)C)NC(=O)[C@H](CCC(N)=O)NC(=O)[C@H](CC(N)=O)NC(=O)[C@H](C)NC(=O)[C@H](Cc1ccc(O)cc1)NC(=O)[C@H](CCC(N)=O)NC(=O)[C@H](CCC(=O)O)NC(=O)[C@@H](N)CC(C)C)C(=O)N[C@H](C(=O)N[C@@H](CCCCN)C(=O)N[C@@H](CCC(=O)O)C(=O)N[C@@H](C)C(=O)N[C@H](C(=O)N[C@@H](CCC(=O)O)C(=O)N[C@@H](CCCCNC(=O)c1ccc2c(c1)C(=O)OC21c2ccc(O)cc2Oc2cc(O)ccc21)C(N)=O)[C@@H](C)O)[C@@H](C)CC` [MEME3], the “co-precipitation with RI” value on RI was “Co-precipitation of MEME3 with RI”. In addition, the “immobilization of PKA type I (PKA-RIα, PKA-C)” value at PKA type I is given as “Only PKA type I was immobilized”. Also, on PKA-RIIα, the “immobilization of PKA-RIIα” value was “not PKA-RIIα”. At Human RIα, the “human RIα binding (R-overlay)” value is “bound with similar affinity to MEME3 as did bovine RIα”. The helicity in series [1] (50% TFE) turned out to be 49%; in series [1] (absence of TFE) it was 12%.

As to “IEKELAQQYQNADAITLE [SM3, scrambled MEME3 negative control peptide, reference compound]”, in the series with RI, the “co-precipitation with RI” value is reported as “did not co-precipitate with RI”. Besides, the “immobilization of PKA type I (PKA-RIα, PKA-C)” value in the series with PKA type I is recorded as “Neither PKA-RIα, PKA-C nor PKA-RIIα were immobilized”. The “immobilization of PKA-RIIα” value in the series with PKA-RIIα is “Neither PKA-RIα nor PKA-RIIα bound”. Moreover, in the series with Human RIα, the “human RIα binding (R-overlay)” value is on record as “no RIα binding at all”. Moreover, the helicity in series [1] (50% TFE) is 29%; in series [1] (absence of TFE), 7%.
